# Source: patent US20240299414A1, “SUBCUTANEOUS OR INTRAMUSCULAR INJECTION FORMULATIONS OF ILOPROST” (EICOS SCIENCES, INC., priority 2020, published 2024)
# Like-named read-outs stand apart in the source and are kept apart here.
# What was measured:
# [1] = cited from earlier work
# [2] = Safety and tolerability in the IV iloprost study (adverse events, vital signs, ECG, laboratory); format: in vivo, human
# Description: On Day 1, study drug was initiated at a starting dose of 0.5 ng/kg/min, and dose increases occurred every 30 minutes (±5 minutes) in increments of 0.5 ng/kg/min up to 2.0 ng/kg/min or the individual tolerated dose. If dose-limiting adverse events (e.g., headache, flushing, jaw pain, myalgia, nausea, or vomiting) occurred that could not be tolerated by the subject, or if the subject experienced symptomatic hypotension, then the dose was reduced in a step-wise manner by 0.5 ng/kg/min every 30 minutes (±5 minutes) until a tolerated dose was determined or the infusion was stopped until the symptoms resolved at which point the study drug was reinitiated at a previously tolerated dose. If symptomatic hypotension or a dose-limiting adverse event occurred during administration of iloprost at the starting dose (i.e., 0.5 ng/kg/min), the infusion was reduced to 0.25 ng/kg/min. If the dose of 0.25 ng/kg/min was not tolerated due to symptomatic hypotension or if a dose-limiting adverse event occurred, the study drug was discontinued, and re-initiation of the infusion could have been attempted after the event had resolved or had been treated. Blood pressure and heart rate were monitored 15 minutes (±5 minutes) prior to and after all dose changes. The maximum tolerated dose was maintained for the remaining 6-hour daily period. At the end of the 6-hour infusion period, the dose was stopped. Subjects were to be monitored for up to 1 hour after completion of study drug infusion (i.e., vital signs were obtained 15 minutes [+5 minutes] and 1 hour [+15 minutes] after completion of the infusion).
# Safety parameters included adverse events, physical examination findings, vital sign measurements (heart rate and blood pressure), 12-lead electrocardiogram (ECG) findings, and standard clinical laboratory measurements (chemistry and hematology).
# [3] = PK sub-study of IV iloprost infusion (plasma, LC-MS); format: in vivo, human; settings: for AUC(0-t) / AUC(0-inf) / Vd / half-life: human, plasma; for AUC(0-t): read-out: AUC0-last, Geometric mean (geometric CV %); for AUC(0-inf): read-out: AUC0-inf, Geometric mean (geometric CV %); for Vd: read-out: Vss, Mean (SD)
# Description: Eligible subjects were given the option to participate in a PK sub-study. Subjects who participated in the sub-study provided plasma samples for PK analysis. The samples were analyzed for iloprost concentrations using validated liquid chromatography mass spectrometry methods.
# The following PK parameters were calculated whenever possible, based on the plasma concentrations of iloprost: • Steady state plasma concentration just before infusion was stopped • Area under the plasma concentration versus time curve (AUC) from time of dosing to the last time point with measurable concentration (AUC0-last) • AUC from time 0 extrapolated to infinity (AUC0-inf) • Percentage of AUC obtained by extrapolation (AUCextrap%) • Terminal elimination constant (λz) • Plasma terminal elimination half-life (t1/2) • Plasma clearance (CL), calculated as dose/AUC0-inf • Volume of distribution (V), calculated as dose/(λz×AUC0-inf)
# [4] = 1.5 ng/kg, maximum tolerated dose level 1.50 ng/kg/min IV, n = 1
# [5] = maximum tolerated dose level 1.00 ng/kg/min IV, n = 1
# [6] = maximum tolerated dose level 1.00 ng/kg/min IV, n = 2
# [7] = maximum tolerated dose level 2.00 ng/kg/min IV, n = 1
# [8] = maximum tolerated dose level 2.00 ng/kg/min IV, n = 4
structure (smiles),measurement,setting,value
"CC#CCC(C)[C@H](O)/C=C/[C@@H]1[C@H]2C/C(=C/CCCC(=O)O)C[C@H]2C[C@H]1O (stereo partly drawn) [Iloprost, (5E)-5-[(3aS,4R,5R,6aS)-5-hydroxy-4-[(E,3S)-3-hydroxy-4-methyloct-1-en-6-ynyl]-3,3a,4,5,6,6a-hexahydro-1H-pentalen-2-ylidene]pentanoic acid]",non-compartmental clearance,[1]; 1 ng/kg/min for 45 minutes,21 mL/min/kg
same,non-compartmental clearance,[1]; 2 ng/kg/min for 4 hours,24 mL/min/kg
same,non-compartmental clearance,[1]; 3 ng/kg/min for 45 minutes,20.6 mL/min/kg
same,"TEAE abdominal pain, n [%]","[2]; human, in vivo",4 [23.5%] subjects
same,"TEAE flushing, n [%]","[2]; human, in vivo",5 [29.4%] subjects
same,"TEAE headache, n [%]","[2]; human, in vivo",16 [94.1%] subjects
same,"TEAE nausea, n [%]","[2]; human, in vivo",11 [64.7%] subjects
same,"subjects who experienced a TEAE, n (%)","[2]; human, in vivo",17 (100.0%) subjects
same,"subjects with TEAEs considered severe by the Investigator, n (%)","[2]; human, in vivo",Two (11.8%) subjects
same,bradycardia or tachycardia,[2]; in vivo,no bradycardia or tachycardia reported
same,changes in chemistry or hematology laboratory values,[2]; in vivo,no clinically significant changes
same,hypertensive or hypotensive events,[2]; in vivo,no hypertensive or hypotensive events reported
same,"SAE, AESI, TEAE leading to discontinuation of study drug, or TEAE leading to death",[2]; whole study,No subjects experienced
same,"geometric mean of Css, AUC0-last and AUC0-inf versus dose","[3]; 0.50 to 2.00 ng/kg/min, exception Css and AUC0-last at 1.50 ng/kg/min",increased as dose increased
same,AUC(0-t),"[3]; 0.5 ng/kg, maximum tolerated dose level 0.50 ng/kg/min IV, n = 1",0.116 ng·h/mL
same,AUC(0-inf),[3]; [4],0.603 ng·h/mL
same,Vd,[3]; [4],49.3 L
same,half-life,"[3]; 1.5 ng/kg, maximum tolerated dose level 1.50 ng/kg/min IV, n = 1, read-out: t1/2, Mean (SD) (converted)",27 min
same,AUC(0-t),"[3]; 1.5 ng/kg, maximum tolerated dose level 1.50 ng/kg/min IV, n = 2",0.203 ng·h/mL
same,half-life,"[3]; intravenous, range across the 4 dose levels, read-out: mean t½",22.9 to 28.3 min
same,AUC(0-inf),[3]; [5],0.379 ng·h/mL
same,Vd,[3]; [5],62 L
same,half-life,"[3]; maximum tolerated dose level 1.00 ng/kg/min IV, n = 1, read-out: t1/2, Mean (SD) (converted)",24.6 min
same,AUC(0-t),[3]; [6],0.315 ng·h/mL
same,AUC(0-inf),[3]; [7],0.701 ng·h/mL
same,Vd,[3]; [7],35.5 L
same,half-life,"[3]; maximum tolerated dose level 2.00 ng/kg/min IV, n = 1, read-out: t1/2, Mean (SD) (converted)",22.9 min
same,AUC(0-t),[3]; [8],0.478 ng·h/mL
same,"Css, Geometric mean (geometric CV %)","[3]; maximum tolerated dose level 0.50 ng/kg/min IV, n = 1",19.60 (NA) pg/mL
same,"CLss, Mean (SD)",[3]; [5],91.22 (NA) L/h
same,"Css, Geometric mean (geometric CV %)",[3]; [6],51.31 (20.7) pg/mL
same,"CLss, Mean (SD)","[3]; maximum tolerated dose level 1.50 ng/kg/min IV, n = 1",6.01 (NA) L/h
same,"Css, Geometric mean (geometric CV %)","[3]; maximum tolerated dose level 1.50 ng/kg/min IV, n = 2",32.90 (284.8) pg/mL
same,"CLss, Mean (SD)",[3]; [7],64.53 (NA) L/h
same,"Css, Geometric mean (geometric CV %)",[3]; [8],76.82 (56.9) pg/mL
